Experimental data reported in patent US9315494B2, “Alkyl-amide-substituted pyridyl compounds useful as modulators of IL-12, IL-23 and/or IFNα responses” (Bristol-Myers Squibb Company, priority 2012, dated 2016).

Columns and labels:
[1] = molecular target: T1, recombinantly expressed His-tagged protein corresponding to amino acids 575-869 of human Tyk2 (Homo sapiens, UniProt P29597); assay: Probe displacement assay (scintillation proximity, [3H] probe); assay type: binding; conditions: 2.5 nM Tyk2 (575-869), 40 nM radiolabeled probe, 30 minutes at room temperature
T1 construct: corresponding to amino acids 575-869 of human Tyk2; made in house
Procedure: The probe displacement assay is conducted as follows: In a […], test compounds along with recombinantly expressed His-tagged protein corresponding to amino acids 575-869 of human Tyk2 (sequence shown below) at 2.5 nM, 40 nM ((R)-N-(1-(3-(8-methyl-5-(methylamino)-8H-imidazo[4,5-d]thiazolo[5,4-b]pyridin-2-yl)phenyl)ethyl)-2-([^3H]methylsulfonyl)benzamide) (preparation described below) and 80 μg/mL Copper His-Tag scintillation proximity assay beads (Perkin Elmer, Catalog #RPNQ0095) in 50 mM HEPES, pH 7.5, containing 100 μg/mL bovine serum albumin and 5% DMSO were incubated for 30 minutes at room temperature. The amount of radiolabeled probe (preparation described below) bound to Tyk2 was then quantified by scintillation counting, and the inhibition by the test compound calculated by comparison to wells either with no inhibitor (0% inhibition) or without Tyk2 (100% inhibition).
Protein Sequence of recombinant Hig-tagged Tyk2 (575-869):
The preparation of radiolabeled probe, (R)-N-(1-(3-(8-methyl-5-(methylamino)-8H-imidazo[4,5-d]thiazolo[5,4-b]pyridin-2-yl)phenyl)ethyl)-2-([^3H]methylsulfonyl)benzamide, was performed as described below: […]

[2] = system: IL-23-stimulated STAT-dependent luciferase reporter in Kit225 T cells; assay: Kit225 T cell assay, IL-23 stimulated STAT-dependent luciferase reporter; assay type: cell-based, human; conditions: Kit225 T cells, 20 ng/mL human recombinant IL-23, 5-6 hours, luciferase; read-out: IL23 (Kit225 T Cell Inhibition Data)
Method in brief: (§1)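 Stimulus was either 200 U/mL human recombinant IFNα or 20 ng/mL IL-23, applied for 5-6 h to reporter-bearing Kit225 T cells grown in RPMI/10% FBS. Luciferase expression then quantified by luminescent assay.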

[3] = system: IFNα-stimulated STAT-dependent luciferase reporter in Kit225 T cells; assay: Kit225 T cell assay, IFNα stimulated STAT-dependent luciferase reporter; assay type: cell-based, human; conditions: Kit225 T cells, 200 U/mL human recombinant IFNα, 5-6 hours, luciferase; read-out: IFNα (Kit225 T Cell Inhibition Data)
Method in brief: as §1

T1 sequence (P29597 575-869): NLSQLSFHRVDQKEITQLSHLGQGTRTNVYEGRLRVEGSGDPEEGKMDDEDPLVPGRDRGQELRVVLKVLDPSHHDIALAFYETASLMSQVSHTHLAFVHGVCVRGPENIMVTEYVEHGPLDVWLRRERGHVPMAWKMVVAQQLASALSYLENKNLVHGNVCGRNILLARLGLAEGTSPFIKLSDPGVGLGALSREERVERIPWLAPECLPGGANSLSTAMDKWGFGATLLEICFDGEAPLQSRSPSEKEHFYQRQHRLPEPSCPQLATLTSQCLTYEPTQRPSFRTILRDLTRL

CNC(=O)c1cnc(Nc2ccc(F)cn2)cc1Nc1ccc(N2CCOCC2)cc1 [Example 211]
EC50 [1]: 246 nM
IC50 [2]: 4270 nM
IC50 [3]: 3150 nM

CNC(=O)c1cnc(Nc2cc(C(=O)NCCOC)ccn2)cc1Nc1cc(F)cc(F)c1OC [Example 266]
EC50 [1]: 6.5 nM
IC50 [2]: 312 nM
IC50 [3]: 160 nM

CNC(=O)c1cnc(Nc2ccc(F)cn2)cc1Nc1ccc(-c2ccccc2)cc1 [Example 194]
EC50 [1]: 349 nM
IC50 [2]: 3220 nM
IC50 [3]: 8660 nM

CNC(=O)c1cnc(Nc2cc(Cl)ccn2)cc1Nc1cc(F)cc(F)c1OC [Example 144]
EC50 [1]: 46.1 nM
IC50 [2]: 517 nM
IC50 [3]: 230 nM

CNC(=O)c1cnc(Nc2cc(C)c(F)cn2)cc1Nc1cccc(C(=O)NCCF)c1OC [Example 356]
EC50 [1]: 2.6 nM
IC50 [2]: 120 nM
IC50 [3]: 80 nM

CNC(=O)c1cnc(Nc2ccc(CO)cn2)cc1Nc1ccccc1C(N)=O [Example 79]
EC50 [1]: 5.5 nM
IC50 [2]: 4100 nM
IC50 [3]: 1850 nM

CNC(=O)c1cnc(Nc2ccc(N3CCCC3=O)cn2)cc1Nc1ccc(Cl)cc1OC [Example 107]
EC50 [1]: 32.4 nM
IC50 [2]: 189 nM
IC50 [3]: 120 nM

CNC(=O)c1cnc(Nc2cc(C)nc(C)n2)cc1Nc1cc(F)cc(F)c1OC [Example 409]
EC50 [1]: 6.3 nM
IC50 [2]: 40 nM
IC50 [3]: 20 nM

[2H]C([2H])([2H])NC(=O)c1cnc(Nc2ccccn2)cc1Nc1cccc(-c2ncc(F)cn2)c1OC [Example 449]
EC50 [1]: 1.1 nM
IC50 [2]: 20 nM
IC50 [3]: 10 nM

CNC(=O)c1cnc(Nc2ccc3ccccc3n2)cc1Nc1ccccc1S(C)(=O)=O [Example 2]
EC50 [1]: 13.2 nM
IC50 [2]: 57.4 nM
IC50 [3]: 30 nM

[2H]C([2H])([2H])NC(=O)c1cnc(Nc2ccc(F)cn2)cc1Nc1ccccc1S(C)(=O)=O [Example 298]
EC50 [1]: 6.5 nM
IC50 [2]: 110 nM
IC50 [3]: 60 nM

CNC(=O)c1cnc(Nc2cc(C#N)ccn2)cc1Nc1ccc(S(C)(=O)=O)cc1OC [Example 43]
EC50 [1]: 68.7 nM
IC50 [2]: 173 nM
IC50 [3]: 870 nM

CNC(=O)c1cnc(Nc2cc(C)c(F)cn2)cc1Nc1cccc(C(=O)NCc2ccccn2)c1OC [Example 327]
EC50 [1]: 15.3 nM
IC50 [2]: 100 nM
IC50 [3]: 10 nM

CNC(=O)c1cnc(Nc2ccc(C(=O)NC3CC3)cn2)cc1Nc1ccc(Cl)cc1OC [Example 261]
EC50 [1]: 155 nM
IC50 [2]: 2180 nM
IC50 [3]: 1370 nM

CCn1ncnc1-c1cccc(Nc2cc(Nc3cc(C)nc(C)n3)ncc2C(=O)NC)c1OC [Example 383]
EC50 [1]: 6.1 nM
IC50 [2]: 100 nM
IC50 [3]: 20 nM

CCn1cnc(-c2cccc(Nc3cc(Nc4cc(C)nc(C)n4)ncc3C(=O)NC)c2OC)n1 [Example 382]
EC50 [1]: 4.6 nM
IC50 [2]: 10 nM
IC50 [3]: 5.07 nM

CNC(=O)c1cnc(Nc2ccc(F)cn2)cc1Nc1cc(Cl)ccc1OC [Example 203]
EC50 [1]: 53.5 nM
IC50 [2]: 1460 nM
IC50 [3]: 1170 nM

CNC(=O)c1cnc(Nc2ccc(N3CCOCC3)cn2)cc1Nc1ccc(Cl)cc1OC [Example 104]
EC50 [1]: 17.7 nM
IC50 [2]: 246 nM
IC50 [3]: 50 nM

CNC(=O)c1cnc(Nc2cc(CO)ccn2)cc1Nc1ccccc1C(N)=O [Example 94]
EC50 [1]: 9.5 nM
IC50 [2]: 3560 nM
IC50 [3]: 3430 nM

CNC(=O)c1ccc(Nc2cc(Nc3ccc(F)cn3)ncc2C(=O)NC)c(OC)c1 [Example 237]
EC50 [1]: 29.1 nM
IC50 [2]: 470 nM
IC50 [3]: 460 nM

CCc1cccc(Nc2cc(Nc3ccc(Cl)cc3OC)c(C(=O)NC)cn2)n1 [Example 125]
EC50 [1]: 436 nM
IC50 [2]: 9680 nM
IC50 [3]: 9970 nM

CNC(=O)c1cnc(Nc2ccc3ccccc3n2)cc1Nc1ccccc1C(N)=O [Example 87]
EC50 [1]: 3.8 nM
IC50 [2]: 257 nM
IC50 [3]: 160 nM

CNC(=O)c1cnc(Nc2cc(C)nc(C)n2)cc1Nc1cccc(-c2cnn(C)c2)c1OC [Example 395]
EC50 [1]: 3.1 nM
IC50 [2]: 30 nM
IC50 [3]: 20 nM

CNC(=O)c1cnc(Nc2ccc3ccccc3n2)cc1NC1CCCC1C(N)=O (stereo not drawn) [Example 289]
EC50 [1]: 495 nM
IC50 [2]: 12500 nM
IC50 [3]: 7300 nM

CNC(=O)c1cnc(Nc2ccc(F)cn2)cc1Nc1cccc(C(N)=O)c1OC [Example 315, 4-((3-carbamoyl-2-methoxyphenyl)amino)-6-((5-fluoropyridin-2-yl)amino)-N-methylnicotinamide]
EC50 [1]: 5 nM
IC50 [2]: 90 nM
IC50 [3]: 80 nM

CNC(=O)c1cnc(Nc2ccc(F)cn2)cc1Nc1ccccc1S(=O)(=O)N(C)C [Example 302]
EC50 [1]: 182 nM
IC50 [2]: 4060 nM
IC50 [3]: 2090 nM

CNC(=O)c1cnc(Nc2ccc(N3CCOCC3)cn2)cc1Nc1ccccc1OC(F)F [Example 228]
EC50 [1]: 36.7 nM
IC50 [2]: 144 nM
IC50 [3]: 140 nM

CNC(=O)c1cnc(Nc2cc(C)c(F)cn2)cc1Nc1cccc(-c2nnco2)c1OC [Example 358]
EC50 [1]: 5.3 nM
IC50 [2]: 9.98 nM
IC50 [3]: 10 nM

CNC(=O)c1cnc(Nc2ccc(F)cn2)cc1Nc1ccc(C(=O)NCCO)cc1OC [Example 238]
EC50 [1]: 6.3 nM
IC50 [2]: 4250 nM
IC50 [3]: 2360 nM

CNC(=O)c1cnc(Nc2cc(C#N)ccn2)cc1Nc1cc(F)cc(F)c1OC [Example 134]
EC50 [1]: 9.9 nM
IC50 [2]: 314 nM
IC50 [3]: 130 nM

CNC(=O)c1cnc(Nc2cc(C)c(F)cn2)cc1Nc1cccc(-c2cnn(C)c2)c1OC [Example 396]
EC50 [1]: 6.5 nM
IC50 [2]: 110 nM
IC50 [3]: 60 nM

CNC(=O)c1cnc(Nc2ccc(F)cn2)cc1Nc1ccccc1CCO [Example 66]
EC50 [1]: 14.8 nM
IC50 [2]: 1770 nM
IC50 [3]: 3170 nM

CNC(=O)c1cnc(Nc2cc(C#N)ccn2)cc1Nc1cccc(F)c1C(N)=O [Example 176]
EC50 [1]: 18.8 nM
IC50 [2]: 1040 nM
IC50 [3]: 1020 nM

CNC(=O)c1cnc(Nc2cc(C)c(F)cn2)cc1Nc1cccc(C(=O)NCc2nccs2)c1OC [Example 345]
EC50 [1]: 10.5 nM
IC50 [2]: 30 nM
IC50 [3]: 30 nM

[2H]C([2H])([2H])NC(=O)c1cnc(Nc2cc(C(C)(C)O)ccn2)cc1Nc1cccc(-c2ncc(F)cn2)c1OC [Example 450]
EC50 [1]: 7.3 nM
IC50 [2]: 20 nM
IC50 [3]: 10 nM

CNC(=O)c1cnc(Nc2cc(C)c(F)cn2)cc1Nc1cccc(-c2nc[nH]n2)c1OC(F)F [Example 387]
EC50 [1]: 4.6 nM
IC50 [2]: 280 nM
IC50 [3]: 120 nM

CNC(=O)c1cnc(Nc2ccc(Cl)cn2)cc1Nc1ccccc1C(N)=O [Example 80]
EC50 [1]: 4.4 nM
IC50 [2]: 320 nM
IC50 [3]: 460 nM

CNC(=O)c1cnc(Nc2cc(C)n(C)n2)cc1Nc1cccc(-c2nnc[nH]2)c1OC [Example 363]
EC50 [1]: 4.7 nM
IC50 [2]: 70 nM
IC50 [3]: 40 nM

CNC(=O)c1cnc(Nc2cc(OC(C)C)ncn2)cc1Nc1ccccc1S(C)(=O)=O [Example 422]
EC50 [1]: 5.7 nM
IC50 [2]: 310 nM
IC50 [3]: 180 nM

CNC(=O)c1cnc(Nc2cccc(OC)n2)cc1Nc1ccccc1C(N)=O [Example 73]
EC50 [1]: 12 nM
IC50 [2]: 506 nM
IC50 [3]: 290 nM

CNC(=O)c1cnc(Nc2ccc(F)cn2)cc1Nc1cccc2ccccc12 [Example 188]
EC50 [1]: 557 nM
IC50 [2]: 4300 nM
IC50 [3]: 6470 nM

CNC(=O)c1cnc(Nc2cncc(C)n2)cc1Nc1ccccc1S(C)(=O)=O [Example 42]
EC50 [1]: 8.2 nM
IC50 [2]: 260 nM
IC50 [3]: 140 nM

CNC(=O)c1cnc(Nc2ccc(C)cn2)cc1Nc1cc(F)cc(F)c1OC [Example 128]
EC50 [1]: 21.3 nM
IC50 [2]: 335 nM
IC50 [3]: 140 nM

CNC(=O)c1cnc(Nc2cc(C)c(F)cn2)cc1Nc1cccc(C(=O)NCC2CCCCC2)c1OC [Example 325]
EC50 [1]: 76.4 nM
IC50 [2]: 460 nM
IC50 [3]: 210 nM

CNC(=O)c1cnc(Nc2cc(C)nc(C)n2)cc1Nc1cccc(-c2nnc(C)[nH]2)c1OC [Example 365]
EC50 [1]: 4.8 nM
IC50 [2]: 10 nM
IC50 [3]: 10 nM

CNC(=O)c1cnc(Nc2ccc(F)cn2)cc1Nc1cc(F)cc(F)c1OC [Example 205]
EC50 [1]: 25.1 nM
IC50 [2]: 372 nM
IC50 [3]: 180 nM

CNC(=O)c1cnc(Nc2ccc(F)cn2)cc1Nc1ccccc1[S+](C)[O-] (stereo not drawn) [Example 62]
EC50 [1]: 84.5 nM
IC50 [2]: 898 nM
IC50 [3]: 1290 nM

CNC(=O)c1cnc(Nc2ccc(N3CCOCC3)cn2)cc1Nc1ccccc1SC [Example 226]
EC50 [1]: 20.1 nM
IC50 [2]: 151 nM
IC50 [3]: 140 nM

CNC(=O)c1cnc(Nc2ccc(F)cn2)cc1Nc1ccccc1N(C)S(C)(=O)=O [Example 426]
EC50 [1]: 4.2 nM
IC50 [2]: 10 nM
IC50 [3]: 10 nM
